We go through ten compounds from patent US6248752A, “Azabicyclooctane compositions and methods for enhancing chemotherapy” (priority 1999, dated 2001).

SMILES strings stand for the structures. Like-named read-outs stand apart in the source and are kept apart here.

Data set [1] can be described thus: Intrinsic cytotoxicity of the compounds toward drug-sensitive MCF-7 cells (sulforhodamine B binding assay). As to conditions: human, Cytotoxicity (% killed at 10 μg/ml). In general terms: Sulforhodamine B stains cellular protein and so reports cell mass.
For data set [2], the target named is T1, MRP (Homo sapiens, UniProt P33527).
T1 construct: Human promyelocytic leukemia HL-60/ADR cells, which express MRP; endogenous in cells; host or cells: HL-60/ADR human promyelocytic leukemia cells
Put plainly: Reversal of MRP-mediated MDR: potentiation of vincristine cytotoxicity toward HL-60/ADR cells. It counts as cell-based.

The test system of data set [3] is MCF-7 human breast carcinoma cells. As to conditions: mcf-7 cells, 48 h.
A short description of data set [4]: in vitro. The note with it: human, mcf-7 cells, Cytotoxicity (% killed at 10 μg/ml).
The target of data set [5] is Pgp (Homo sapiens, UniProt P08183).
Setting [6] is: chemosensitizing score on a scale of 0-5 (best activity=5; equal or superior to verapamil = 4, 4.5 or 5), HL-60/ADR cells, 2 nM vincristine, 48 h.

T1 sequence (P33527 whole entry): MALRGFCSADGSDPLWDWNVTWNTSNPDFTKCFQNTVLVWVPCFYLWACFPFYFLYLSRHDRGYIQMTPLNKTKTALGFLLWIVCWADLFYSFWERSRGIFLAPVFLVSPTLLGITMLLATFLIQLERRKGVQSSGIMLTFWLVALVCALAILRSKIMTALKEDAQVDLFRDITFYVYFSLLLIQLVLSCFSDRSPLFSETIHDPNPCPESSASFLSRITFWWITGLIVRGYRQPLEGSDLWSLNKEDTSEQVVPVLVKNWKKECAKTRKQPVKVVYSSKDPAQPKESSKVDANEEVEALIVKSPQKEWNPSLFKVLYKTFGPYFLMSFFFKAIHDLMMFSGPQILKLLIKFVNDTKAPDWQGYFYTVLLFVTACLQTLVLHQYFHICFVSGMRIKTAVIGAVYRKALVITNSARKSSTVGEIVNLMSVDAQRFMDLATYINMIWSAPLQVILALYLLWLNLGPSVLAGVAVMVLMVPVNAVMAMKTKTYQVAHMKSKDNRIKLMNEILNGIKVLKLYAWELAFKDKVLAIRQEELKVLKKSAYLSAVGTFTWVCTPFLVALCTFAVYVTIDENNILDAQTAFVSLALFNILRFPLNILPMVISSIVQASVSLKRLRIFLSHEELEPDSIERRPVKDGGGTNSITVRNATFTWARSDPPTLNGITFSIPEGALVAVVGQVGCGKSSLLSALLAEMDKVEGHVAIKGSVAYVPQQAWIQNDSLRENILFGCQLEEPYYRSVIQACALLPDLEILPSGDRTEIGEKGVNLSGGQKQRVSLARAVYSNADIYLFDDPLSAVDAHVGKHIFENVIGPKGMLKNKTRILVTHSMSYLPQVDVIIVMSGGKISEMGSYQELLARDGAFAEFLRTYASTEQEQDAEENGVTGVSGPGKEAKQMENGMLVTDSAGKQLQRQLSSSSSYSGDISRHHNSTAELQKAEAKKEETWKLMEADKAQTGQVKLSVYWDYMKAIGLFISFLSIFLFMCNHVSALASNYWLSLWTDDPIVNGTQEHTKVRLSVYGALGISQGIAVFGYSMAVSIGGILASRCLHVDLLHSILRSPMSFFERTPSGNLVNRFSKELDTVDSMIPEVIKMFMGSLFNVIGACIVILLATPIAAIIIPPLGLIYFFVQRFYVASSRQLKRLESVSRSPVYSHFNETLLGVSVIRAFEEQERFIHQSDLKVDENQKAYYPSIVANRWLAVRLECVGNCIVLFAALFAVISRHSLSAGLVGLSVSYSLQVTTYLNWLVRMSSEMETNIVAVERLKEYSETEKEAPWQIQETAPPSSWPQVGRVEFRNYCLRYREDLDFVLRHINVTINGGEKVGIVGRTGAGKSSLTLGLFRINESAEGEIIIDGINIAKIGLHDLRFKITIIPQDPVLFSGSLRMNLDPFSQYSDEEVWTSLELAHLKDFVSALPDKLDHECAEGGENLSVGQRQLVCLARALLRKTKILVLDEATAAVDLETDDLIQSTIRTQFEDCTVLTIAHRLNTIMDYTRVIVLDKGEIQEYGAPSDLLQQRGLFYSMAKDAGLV
Chain of Pgp (P08183 whole entry): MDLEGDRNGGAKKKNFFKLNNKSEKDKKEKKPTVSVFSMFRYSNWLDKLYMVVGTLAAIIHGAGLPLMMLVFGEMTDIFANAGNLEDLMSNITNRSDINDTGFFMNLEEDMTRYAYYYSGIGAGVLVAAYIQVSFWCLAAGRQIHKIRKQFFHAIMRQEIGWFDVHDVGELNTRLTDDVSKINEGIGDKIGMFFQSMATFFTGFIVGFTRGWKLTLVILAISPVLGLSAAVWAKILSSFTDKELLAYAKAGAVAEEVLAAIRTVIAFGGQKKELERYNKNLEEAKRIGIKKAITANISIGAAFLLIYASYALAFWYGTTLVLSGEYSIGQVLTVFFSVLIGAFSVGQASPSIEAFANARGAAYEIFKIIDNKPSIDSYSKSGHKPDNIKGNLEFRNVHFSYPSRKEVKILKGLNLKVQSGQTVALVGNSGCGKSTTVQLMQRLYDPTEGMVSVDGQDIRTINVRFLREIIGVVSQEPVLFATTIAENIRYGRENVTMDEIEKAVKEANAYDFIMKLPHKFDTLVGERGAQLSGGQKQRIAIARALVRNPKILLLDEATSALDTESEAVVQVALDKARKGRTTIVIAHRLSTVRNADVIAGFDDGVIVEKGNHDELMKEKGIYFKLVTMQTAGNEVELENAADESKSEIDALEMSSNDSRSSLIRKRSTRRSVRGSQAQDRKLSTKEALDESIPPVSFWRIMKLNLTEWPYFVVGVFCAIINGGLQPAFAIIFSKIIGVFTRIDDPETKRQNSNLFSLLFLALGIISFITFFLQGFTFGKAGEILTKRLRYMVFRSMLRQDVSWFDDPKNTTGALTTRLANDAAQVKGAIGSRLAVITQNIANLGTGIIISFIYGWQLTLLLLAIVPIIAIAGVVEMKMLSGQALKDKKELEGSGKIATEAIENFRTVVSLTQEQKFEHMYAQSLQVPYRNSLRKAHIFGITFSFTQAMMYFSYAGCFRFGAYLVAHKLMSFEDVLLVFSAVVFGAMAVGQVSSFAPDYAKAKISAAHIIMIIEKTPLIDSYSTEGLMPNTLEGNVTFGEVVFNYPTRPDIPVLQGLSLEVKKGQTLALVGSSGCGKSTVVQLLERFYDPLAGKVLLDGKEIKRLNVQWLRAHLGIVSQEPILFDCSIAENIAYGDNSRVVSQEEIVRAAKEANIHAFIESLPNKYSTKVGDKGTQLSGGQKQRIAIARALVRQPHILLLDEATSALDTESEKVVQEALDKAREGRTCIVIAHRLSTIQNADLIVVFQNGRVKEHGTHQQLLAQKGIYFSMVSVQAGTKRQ

The compound `COc1cc(C2(O)CC3CCC2N(Cc2ccccc2)C3)cc(OC)c1OC` (stereo not drawn) [Compound I-2, 2-benzyl-cis-6-hydroxy-trans-6-(3,4,5-trimethoxyphenyl)-2-azabicyclco[2.2.2]octane] returned a cytotoxicity at 48 h in data set [1] of 39%. In data set [2] (setting [6]), the MRP antagonism was found to be 3. With `COc1cc(C2CC3CCC2NC3)cc(OC)c1OC` (stereo not drawn) [Compound I-5, trans-6-(3,4,5-trimethoxyphenyl)-2-azabicyclo[2.2.2]octane], the MRP antagonism in data set [2] (setting [6]) is given as 4. For the same compound, in data set [3], the “Cytotoxicity (% killed at 10 μg/ml)” value was 0%. In data set [1], `CN1CC2CCC1C(=O)C2=C(c1ccccc1)c1ccccc1` (stereo not shown) [Compound I-11, 5-diphenylmethylidene-2-methyl-2-azabicyclo[2.2.2]octan-6-one] showed a cytotoxicity at 48 h of 8%. On to `COc1cc(C2CC3CCC2NC3)cc(OC)c1OC` (stereo not drawn) [Compound I-4, cis-6-(3,4,5-trimethoxyphenyl)-2-azabicyclo[2.2.2]octane], for which, in data set [2] (setting [6]), the MRP antagonism was found to be 2. For the same compound, the “Cytotoxicity (% killed at 10 μg/ml)” value in data set [3] is 12%. Consider `CCN1CC2CCC1C(Nc1ccccc1)C2` (stereo not shown) [Compound I-7, 2-ethyl-6-anilino-2-azabicyclo[2.2.2]octane], for which, in data set [2] (setting [6]), the MRP antagonism stood at 1. The compound also had a cytotoxicity at 48 h in data set [4] of 26%. In the case of `Oc1ccc(C2(O)CC3CCC2N(Cc2ccccc2)C3)cc1O` (stereo not drawn) [Compound I-6, 2-benzyl-cis-6-hydroxy-trans-6-(3,4-dihydroxyphenyl)-2-azabicyclo[2.2. 2]octane], in data set [1], the cytotoxicity at 48 h was determined as 21%. Also, the MRP antagonism in data set [2] (setting [6]) was found to be 1.5. As to `NNC(=O)OC1CC2CCC(C1)N2C(=O)Oc1ccc(Cl)cc1` (stereo not shown) [II-1, 3-hydrazinocarbonyloxy-8-(4-chlorophenoxycarbonyl)-8-azabicyclo[3.2. 1]octane], in data set [5], the Pgp antagonism amounted to 3. Besides, the MRP antagonism in data set [2] worked out at 2. For the compound `OC1(c2ccc(OCc3ccccc3)c(OCc3ccccc3)c2)CC2CCC1N(Cc1ccccc1)C2` (stereo not shown) [Compound I-10, 2-benzyl-6-(3,4-dibenzyloxyphenyl)-6-hydroxy-2-azabicyclo[2.2.2]octane], the cytotoxicity at 48 h in data set [1] was 0%. Besides, the MRP antagonism in data set [2] (setting [6]) is given as 0.

As for `OC1CC2CCC1N(Cc1ccccc1)C2` (stereo not drawn) [Compound I-9, 2-benzyl-6-trans-hydroxy-2-azabicyclo[2.2.2]octane], in data set [2] (setting [6]), the MRP antagonism came out at 0. In data set [4], this compound displayed a cytotoxicity at 48 h of 0%.

Regarding `COc1cc(C2CC3CCC2N(Cc2ccccc2)C3)cc(OC)c1OC` (stereo not shown) [Compound I-3, 2-benzyl-6-(3,4,5-trimethoxyphenyl)-2-azabicyclo[2.2.2]octane], the cytotoxicity at 48 h in data set [1] came out at 22%. Also, the MRP antagonism in data set [2] (setting [6]) was 4.
